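Briefly, cells in 96-well plates were exposed to five compound concentrations for 48 h, and endpoints were estimated by linear interpolation. TGI denotes the concentration required for complete inhibition of growth.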
Test system: 786-0 renal
Assay: NCI anticancer screen, dose series, 48 h

Row | Compound | TGI [µM]
1 | COc1cc2c(cc1O)[C@@]1(Cc3ccc(OC)c(OC)c3)CCC(=O)N1CC2 | > 100
2 | Cc1ccc(Oc2ccc(C(=O)c3cccc(C(=O)c4ccc(Oc5ccc(C)cc5)cc4)n3)cc2)cc1 | > 100
3 | COc1ccc(/C=C/C(=O)c2cc(C(=O)O)c(OC)cc2OC)cc1OC | > 100
4 | CC(=O)NC(CCCN(Cc1ccccc1)C(=O)NCCCl)C(=O)NCc1ccccc1 (stereo unspecified) | > 100
5 | N/N=C(\CCN1CCCC1)CC(c1ccccc1)c1c(O)c2ccccc2oc1=O (stereo unspecified) | > 100

Test system: A498 renal
Assay: NCI anticancer screen, dose series, 48 h

Row | Compound | TGI [µM]
6 | COc1cc2c(cc1O)[C@@]1(Cc3ccc(OC)c(OC)c3)CCC(=O)N1CC2 | > 100
7 | Cc1ccc(Oc2ccc(C(=O)c3cccc(C(=O)c4ccc(Oc5ccc(C)cc5)cc4)n3)cc2)cc1 | > 100
8 | COc1ccc(/C=C/C(=O)c2cc(C(=O)O)c(OC)cc2OC)cc1OC | > 100
9 | CC(=O)NC(CCCN(Cc1ccccc1)C(=O)NCCCl)C(=O)NCc1ccccc1 (stereo unspecified) | > 100

Test system: A549 NSCLC
Assay: NCI anticancer screen, dose series, 48 h

Row | Compound | TGI [µM]
10 | COc1cc2c(cc1O)[C@@]1(Cc3ccc(OC)c(OC)c3)CCC(=O)N1CC2 | > 100
11 | Cc1ccc(Oc2ccc(C(=O)c3cccc(C(=O)c4ccc(Oc5ccc(C)cc5)cc4)n3)cc2)cc1 | > 100
12 | COc1ccc(/C=C/C(=O)c2cc(C(=O)O)c(OC)cc2OC)cc1OC | > 100
13 | CC(=O)NC(CCCN(Cc1ccccc1)C(=O)NCCCl)C(=O)NCc1ccccc1 (stereo unspecified) | > 100
14 | N/N=C(\CCN1CCCC1)CC(c1ccccc1)c1c(O)c2ccccc2oc1=O (stereo unspecified) | > 100

Test system: ACHN renal
Assay: NCI anticancer screen, dose series, 48 h

Row | Compound | TGI [µM]
15 | COc1cc2c(cc1O)[C@@]1(Cc3ccc(OC)c(OC)c3)CCC(=O)N1CC2 | > 100
16 | Cc1ccc(Oc2ccc(C(=O)c3cccc(C(=O)c4ccc(Oc5ccc(C)cc5)cc4)n3)cc2)cc1 | > 100
17 | COc1ccc(/C=C/C(=O)c2cc(C(=O)O)c(OC)cc2OC)cc1OC | > 100
18 | CC(=O)NC(CCCN(Cc1ccccc1)C(=O)NCCCl)C(=O)NCc1ccccc1 (stereo unspecified) | > 100
19 | N/N=C(\CCN1CCCC1)CC(c1ccccc1)c1c(O)c2ccccc2oc1=O (stereo unspecified) | > 100

Test system: CAKI-1 renal
Assay: NCI anticancer screen, dose series, 48 h

Row | Compound | TGI [µM]
20 | COc1cc2c(cc1O)[C@@]1(Cc3ccc(OC)c(OC)c3)CCC(=O)N1CC2 | > 100
21 | Cc1ccc(Oc2ccc(C(=O)c3cccc(C(=O)c4ccc(Oc5ccc(C)cc5)cc4)n3)cc2)cc1 | > 100
22 | CC(=O)NC(CCCN(Cc1ccccc1)C(=O)NCCCl)C(=O)NCc1ccccc1 (stereo unspecified) | > 100
23 | N/N=C(\CCN1CCCC1)CC(c1ccccc1)c1c(O)c2ccccc2oc1=O (stereo unspecified) | > 100

Test system: CCRF-CEM leukemia
Assay: NCI anticancer screen, dose series, 48 h

Row | Compound | TGI [µM]
24 | COc1cc2c(cc1O)[C@@]1(Cc3ccc(OC)c(OC)c3)CCC(=O)N1CC2 | > 100
25 | Cc1ccc(Oc2ccc(C(=O)c3cccc(C(=O)c4ccc(Oc5ccc(C)cc5)cc4)n3)cc2)cc1 | > 100
26 | COc1ccc(/C=C/C(=O)c2cc(C(=O)O)c(OC)cc2OC)cc1OC | > 100
27 | CC(=O)NC(CCCN(Cc1ccccc1)C(=O)NCCCl)C(=O)NCc1ccccc1 (stereo unspecified) | > 100
28 | N/N=C(\CCN1CCCC1)CC(c1ccccc1)c1c(O)c2ccccc2oc1=O (stereo unspecified) | > 100

Test system: COLO 205 colon
Assay: NCI anticancer screen, dose series, 48 h

Row | Compound | TGI [µM]
29 | COc1cc2c(cc1O)[C@@]1(Cc3ccc(OC)c(OC)c3)CCC(=O)N1CC2 | > 100
30 | Cc1ccc(Oc2ccc(C(=O)c3cccc(C(=O)c4ccc(Oc5ccc(C)cc5)cc4)n3)cc2)cc1 | > 100
31 | COc1ccc(/C=C/C(=O)c2cc(C(=O)O)c(OC)cc2OC)cc1OC | > 100
32 | CC(=O)NC(CCCN(Cc1ccccc1)C(=O)NCCCl)C(=O)NCc1ccccc1 (stereo unspecified) | > 100
33 | N/N=C(\CCN1CCCC1)CC(c1ccccc1)c1c(O)c2ccccc2oc1=O (stereo unspecified) | > 100

Test system: DLD-1 colon
Assay: NCI anticancer screen, dose series, 48 h

Row | Compound | TGI [µM]
34 | COc1cc2c(cc1O)[C@@]1(Cc3ccc(OC)c(OC)c3)CCC(=O)N1CC2 | > 100
35 | Cc1ccc(Oc2ccc(C(=O)c3cccc(C(=O)c4ccc(Oc5ccc(C)cc5)cc4)n3)cc2)cc1 | > 100
36 | COc1ccc(/C=C/C(=O)c2cc(C(=O)O)c(OC)cc2OC)cc1OC | > 100
37 | CC(=O)NC(CCCN(Cc1ccccc1)C(=O)NCCCl)C(=O)NCc1ccccc1 (stereo unspecified) | > 100
38 | N/N=C(\CCN1CCCC1)CC(c1ccccc1)c1c(O)c2ccccc2oc1=O (stereo unspecified) | > 100

Test system: DMS 114 small cell lung
Assay: NCI anticancer screen, dose series, 48 h

Row | Compound | TGI [µM]
39 | COc1cc2c(cc1O)[C@@]1(Cc3ccc(OC)c(OC)c3)CCC(=O)N1CC2 | > 100
40 | Cc1ccc(Oc2ccc(C(=O)c3cccc(C(=O)c4ccc(Oc5ccc(C)cc5)cc4)n3)cc2)cc1 | > 100
41 | COc1ccc(/C=C/C(=O)c2cc(C(=O)O)c(OC)cc2OC)cc1OC | > 100
42 | CC(=O)NC(CCCN(Cc1ccccc1)C(=O)NCCCl)C(=O)NCc1ccccc1 (stereo unspecified) | > 100
43 | N/N=C(\CCN1CCCC1)CC(c1ccccc1)c1c(O)c2ccccc2oc1=O (stereo unspecified) | > 100

Test system: DMS 273 small cell lung
Assay: NCI anticancer screen, dose series, 48 h

Row | Compound | TGI [µM]
44 | COc1cc2c(cc1O)[C@@]1(Cc3ccc(OC)c(OC)c3)CCC(=O)N1CC2 | > 100
45 | Cc1ccc(Oc2ccc(C(=O)c3cccc(C(=O)c4ccc(Oc5ccc(C)cc5)cc4)n3)cc2)cc1 | > 100
46 | COc1ccc(/C=C/C(=O)c2cc(C(=O)O)c(OC)cc2OC)cc1OC | > 100
47 | CC(=O)NC(CCCN(Cc1ccccc1)C(=O)NCCCl)C(=O)NCc1ccccc1 (stereo unspecified) | > 100
48 | N/N=C(\CCN1CCCC1)CC(c1ccccc1)c1c(O)c2ccccc2oc1=O (stereo unspecified) | > 100

Test system: EKVX NSCLC
Assay: NCI anticancer screen, dose series, 48 h

Row | Compound | TGI [µM]
49 | COc1cc2c(cc1O)[C@@]1(Cc3ccc(OC)c(OC)c3)CCC(=O)N1CC2 | > 100
50 | Cc1ccc(Oc2ccc(C(=O)c3cccc(C(=O)c4ccc(Oc5ccc(C)cc5)cc4)n3)cc2)cc1 | > 100
51 | COc1ccc(/C=C/C(=O)c2cc(C(=O)O)c(OC)cc2OC)cc1OC | > 100
52 | CC(=O)NC(CCCN(Cc1ccccc1)C(=O)NCCCl)C(=O)NCc1ccccc1 (stereo unspecified) | > 100
53 | N/N=C(\CCN1CCCC1)CC(c1ccccc1)c1c(O)c2ccccc2oc1=O (stereo unspecified) | > 100

Test system: HCC-2998 colon
Assay: NCI anticancer screen, dose series, 48 h

Row | Compound | TGI [µM]
54 | COc1cc2c(cc1O)[C@@]1(Cc3ccc(OC)c(OC)c3)CCC(=O)N1CC2 | > 100
55 | Cc1ccc(Oc2ccc(C(=O)c3cccc(C(=O)c4ccc(Oc5ccc(C)cc5)cc4)n3)cc2)cc1 | > 100
56 | CC(=O)NC(CCCN(Cc1ccccc1)C(=O)NCCCl)C(=O)NCc1ccccc1 (stereo unspecified) | > 100
57 | N/N=C(\CCN1CCCC1)CC(c1ccccc1)c1c(O)c2ccccc2oc1=O (stereo unspecified) | > 100

Test system: HCT-116 colon
Assay: NCI anticancer screen, dose series, 48 h

Row | Compound | TGI [µM]
58 | COc1cc2c(cc1O)[C@@]1(Cc3ccc(OC)c(OC)c3)CCC(=O)N1CC2 | > 100
59 | Cc1ccc(Oc2ccc(C(=O)c3cccc(C(=O)c4ccc(Oc5ccc(C)cc5)cc4)n3)cc2)cc1 | > 100
60 | COc1ccc(/C=C/C(=O)c2cc(C(=O)O)c(OC)cc2OC)cc1OC | > 100
61 | CC(=O)NC(CCCN(Cc1ccccc1)C(=O)NCCCl)C(=O)NCc1ccccc1 (stereo unspecified) | > 100
62 | N/N=C(\CCN1CCCC1)CC(c1ccccc1)c1c(O)c2ccccc2oc1=O (stereo unspecified) | > 100

Test system: HCT-15 colon
Assay: NCI anticancer screen, dose series, 48 h

Row | Compound | TGI [µM]
63 | COc1cc2c(cc1O)[C@@]1(Cc3ccc(OC)c(OC)c3)CCC(=O)N1CC2 | > 100
64 | Cc1ccc(Oc2ccc(C(=O)c3cccc(C(=O)c4ccc(Oc5ccc(C)cc5)cc4)n3)cc2)cc1 | > 100
65 | COc1ccc(/C=C/C(=O)c2cc(C(=O)O)c(OC)cc2OC)cc1OC | > 100
66 | CC(=O)NC(CCCN(Cc1ccccc1)C(=O)NCCCl)C(=O)NCc1ccccc1 (stereo unspecified) | > 100
